Measurements published in patent US6906098B2, “Mixed steroidal 1,2,4,5-tetraoxane compounds and methods of making and using thereof” (priority 2002, dated 2005).
In brackets after ≈: the same amount, converted by molar mass. Several values for one entry are separate records, joined by “and”; a condition that tells them apart may be missing. Identical values can stand only once. Like-named read-outs stand apart in the source and are kept apart here.

Experiments:
[1] = test system: Plasmodium falciparum chloroquine-susceptible strain D6; assay: In vitro antimalarial drug susceptibility assay (radiolabeled hypoxanthine incorporation), strain D6; type: cell-based; settings: growth inhibition, chloroquine-susceptible strain D6, 66 h incubation
[2] = test system: Plasmodium falciparum chloroquine-resistant strain W2; assay: microbe, parasite or virus in culture; type: cell-based; settings: growth inhibition, chloroquine-resistant strain W2, 66 h incubation
[3] = test system: D6 and W2 P. falciparum clones; type: cell-based, Plasmodium falciparum; settings: IC50 (W2)/IC50 (D6) ratio
M. tuberculosis H37Rv = assay: Minimum inhibitory concentration (MIC) in the MABA; type: cell-based, Mycobacterium tuberculosis; settings: Mycobacterium tuberculosis, H37RV, read-out: MIC
Method in brief: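 Run under the NIAID TAACF screening program against M. tuberculosis by fluorescence read-out. MIC taken as the lowest concentration giving 90% reduction in fluorescence relative to controls.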

[4] = test system: UO-31 renal cancer cell line; assay: NCI in vitro antiproliferative screen (SRB), UO-31; type: cell-based, human; settings: UO-31, after 48 h; for GI50 / CC50: Homo sapiens; for CC50: read-out: LC50 (the source's name)
Method: (§1) In preliminary tests, four compounds (1B14a, 1C44, 1C45, and 1C46) were chosen by NIH-NCI for in vitro screening. See Drug discovery and development program, National Cancer Institute, Bethesda, (NCI), http://dtp.nci.nih.gov. All tetraoxanes were evaluated in the 3-cell line (lung—NCI-H460, breast—MCF7, CNS-SF-268) one dose primary anticancer assay: growth percentage after 48 hours, at 100 μM concentration of tested compound. Two compounds were eliminated at this step (1B14a and 1C46), while the acid 1C44 and primary amide 1C45 were evaluated against the full panel of 60 human tumor cell lines starting with 10^−4 M concentration of investigated compounds.
(§2) The activity of numerous compounds of the present invention against various cancer cell lines was submitted to the Developmental Therapeutics Program (DTP) at the National Cancer Institute (NCI) of the National Institutes of Health (NIH) for screening.
(§3) The DTP Human Tumor Cell Line Screen utilizes 60 different human tumor cell lines, representing leukemia, melanoma and cancers of the lung, colon, brain, ovary, breast, prostate, and kidney according to conventional methods known in the art. See e.g. Alley, M. C., et al. (1988) Cancer Research 48:589-601; Grever, M. R., et al. (1992) Seminars in Oncology 19(6):622-638; and Boyd, M. R., and Paull, K. D. (1995) Drug Development Research 34:91-109, which are herein incorporated by reference.
(§4) Generally, the human tumor cell lines of the cancer screening panel are grown in RPMI 1640 medium containing 5% fetal bovine serum and 2 mM L-glutamine. For a typical screening experiment, cells are inoculated into 96 well microtiter plates in 100 μl at plating densities ranging from 5,000 to 40,000 cells/well depending on the doubling time of individual cell lines. After cell inoculation, the microtiter plates are incubated at 37° C., 5% CO2, 95% air and 100% relative humidity for 24 hours prior to addition of the compounds to be tested.
(§5) After 24 hours, two plates of each cell line are fixed in situ with TCA, to represent a measurement of the cell population for each cell line at the time of drug addition (Tz). Experimental drugs are solubilized in dimethyl sulfoxide at 400-fold the desired final maximum test concentration and stored frozen prior to use. At the time of drug addition, an aliquot of frozen concentrate is thawed and diluted to twice the desired final maximum test concentration with complete medium containing 50 μg/ml gentamicin. Additional four, 10-fold or ½ log serial dilutions are made to provide a total of five drug concentrations plus control. Aliquots of 100 μl of these different drug dilutions are added to the appropriate microtiter wells already containing 100 μl of medium, resulting in the required final drug concentrations.
(§6) Following drug addition, the plates are incubated for an additional 48 hours at 37° C., 5% CO2, 95% air, and 100% relative humidity. For adherent cells, the assay is terminated by the addition of cold TCA. Cells are fixed in situ by the gentle addition of 50 μl of cold 50% (w/v) TCA (final concentration, 10% TCA) and incubated for 60 minutes at 4° C. The supernatant is discarded, and the plates are washed five times with tap water and air dried. Sulforhodamine B (SRB) solution (100 μl) at 0.4% (w/v) in 1% acetic acid is added to each well, and plates are incubated for 10 minutes at room temperature. […]

[5] = test system: TK-10 renal cancer cell line; assay: NCI in vitro antiproliferative screen (SRB), TK-10; type: cell-based, human; settings: TK-10, after 48 h; for GI50 / CC50: Homo sapiens; for CC50: read-out: LC50 (the source's name)
Method: as §1, §2, §3, §4, §5, §6

[6] = test system: MALME-3M melanoma cancer cell line; assay: NCI in vitro antiproliferative screen (SRB), MALME-3M; type: cell-based, human; settings: for GI50 / CC50: Homo sapiens; for CC50: read-out: LC50 (the source's name)
Method: as §1, §2, §3, §4, §5, §6

[7] = test system: IGROV1 ovarian cancer cell line; assay: NCI in vitro antiproliferative screen (SRB), IGROV1; type: cell-based, human; settings: IGROV1, after 48 h
Method: as §1, §2, §3, §4, §5, §6

SR leukemia cell line = assay: NCI in vitro antiproliferative screen (SRB), SR; type: cell-based, human; settings: after 48 h; for GI50 / CC50: Homo sapiens; for CC50: read-out: LC50 (the source's name)
Method: as §1, §2, §3, §4, §5, §6

[8] = test system: Mycobacterium tuberculosis H37Rv (ATCC 27294); assay: Primary screen, Microplate Alamar Blue Assay (MABA), percent inhibition; type: cell-based; settings: Mycobacterium tuberculosis, primary screening at 6.25 μg/ml
Method in brief: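 Single-concentration screen at 6.25 μg/ml (or molar equivalent of the heaviest congener in a series) against H37Rv grown in BACTEC 12B medium. Growth read by Microplate Alamar Blue Assay, reported as percent inhibition.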

VERO cells [9] = test system: VERO cells
[10] = test system: KM-12 colon cancer cell line; assay: NCI in vitro antiproliferative screen (SRB), KM-12; type: cell-based, human; settings: KM-12, after 48 h; for GI50 / CC50: Homo sapiens, KM12; for CC50: read-out: LC50 (the source's name)
Method: as §1, §2, §3, §4, §5, §6

VERO cells [11] = assay: cells; settings: Chlorocebus sabaeus, Table 5
in vitro = settings: African green monkey, Cytotoxcity (IC50)
[12] = Table 5, Alamar assay, M. tuberculosis H37Rv
[13] = MALME-3M, after 48 h, read-out: GI50
[14] = Table 3, H37Rv, read-out: Inhibition (%)
[15] = Table 5, Alamar assay, read-out: % Inhib
[16] = ratio of IC50 in VERO cells to MIC (M. tuberculosis H37Rv)

| Structure (SMILES) | Strain D6 IC50 [1] [µg/mL] | Strain W2 IC50 [2] [µg/mL] | Resistance Index [3] | MIC (M. tuberculosis H37Rv; Table 3, H37Rv) | MIC (M. tuberculosis H37Rv; [12]) [µg/mL] | GI50 [4] [µM] | CC50 [4] [µM] | TGI [4] [µM] | GI50 [5] [µM] | CC50 [5] [µM] | TGI [5] [µM] | GI50 [6, 13] [µM] | CC50 ([6]; MALME-3M, after 48 h) [µM] | TGI ([6]; MALME-3M, after 48 h) [µM] | GI50 ([7]; Homo sapiens, IGROV-1) [µM] | TGI [7] [µM] | GI50 (SR leukemia cell line) [µM] | CC50 (SR leukemia cell line) [µM] | inhibition at 6.25 µg/mL [8, 14] [%] | inhibition at 6.25 µg/mL [8, 15] [%] | also measured |
| --- | --- | --- | --- | --- | --- | --- | --- | --- | --- | --- | --- | --- | --- | --- | --- | --- | --- | --- | --- | --- | --- |
| CC(=O)O[C@H]1CC2C(C3CC[C@H](C(C)CCC(=O)O)[C@]31C)[C@H](OC(C)=O)C[C@@H]1CC3(CC[C@]21C)OOC1(CCC(c2ccccc2)CC1)OO3 (single isomer, unassigned) [Compound 1C44, 7α,12α-Diacetoxy-5β-cholan-24-oic acid-3-spiro-6′-(1′,2′,4′,5′-tetraoxacyclohexane)-3′-spiro-1″-((4″R or S)-phenyl)cyclohexane] | 0.00619 | 0.00609 | 0.98 | 6.25 µg/mL (≈ 8.97 µM) | 6.25 (≈ 8.97 µM) | 1.83 | 6.73 | 3.51 | 1.99 | 27 | 5.94 | 2.27 | 47 | 9.14 | 0.26 | 0.82 | 1.83 | 100 | 94 | 94 | LC50 (concentration killing 50% of cells) ([7]; Homo sapiens, IGROV-1): 3.76 µM; TGI (SR leukemia cell line): 5.92 µM; SI (selectivity index) (VERO cells [9]; [16]): 0.17; GI50 [10]: 1.96 µM; CC50 [10]: 40.1 µM; TGI [10]: 5.36 µM; IC50 (VERO cells [11]): 1.07 µg/mL (≈ 1.54 µM) |
| CC(=O)O[C@H]1CC2C(C3CC[C@H](C(C)CCC(N)=O)[C@]31C)[C@H](OC(C)=O)C[C@@H]1CC3(CC[C@]21C)OOC1(CCC(c2ccccc2)CC1)OO3 (single isomer, unassigned) [Compound 1C45, 7α,12α-Diacetoxy-5β-cholan-24-amide-3-spiro-6′-(1′,2′,4′,5′-tetraoxacyclohexane)-3′-spiro-1″-((4″R or S)-phenyl)cyclohexane] | 0.00719 | 0.00736 | 1.02 | 6.25 µg/mL (≈ 8.98 µM) | 6.25 (≈ 8.98 µM) | 0.36 | 4.57 | 1.35 | 2.7 | 8.07 | 4.66 | 0.02 | 37.3 | 3.99 | 0.295 | 1.11 | 0.29 | 100 | 93 | 93 | GI50 ([6]; Malme-3M): 0.02 µM; GI50 [10]: 1.19 µM; CC50 [10]: 7.15 µM; TGI [10]: 2.92 µM |
| CNC(=O)CCC(C)[C@H]1CCC2C3C(C[C@H](OC(C)=O)[C@@]21C)[C@@]1(C)CCC2(C[C@H]1C[C@H]3OC(C)=O)OOC1(CCC(C)CC1)OO2 (stereo partly drawn) [18/1C27, N-Methyl-7α,12α-diacetoxy-5β-cholan-24-amide-3-spiro-6′-(1′,2′,4′,5′-tetraoxacyclohexane)-3′-spiro-1″-((4″R)-methyl)cyclohexane] | 0.00386 | 0.00234 | 0.61 | 6.25 µg/mL and 9.65 µM | 6.25 (≈ 9.65 µM) | – | – | – | – | – | – | – | – | – | – | – | – | – | 98 | 98 | IC50 (in vitro; Table 3, VERO cell line, 72 hours exposure): 5.69 µg/mL and 8.78 µM; SI (selectivity index) (VERO cells [9]; [16]): 0.91 |
| CC(=O)O[C@H]1C(=O)[C@@]2(C)[C@H]([C@H](OC(=O)c3ccccc3)[C@]3(O)C[C@H](OC(=O)[C@H](O)[C@@H](NC(=O)c4ccccc4)c4ccccc4)C(C)=C1C3(C)C)[C@]1(OC(C)=O)CO[C@@H]1C[C@@H]2O [Paclitaxel, reference compound] | – | – | – | – | – | 1.58 | 100 | 39.8 | 0.25 | 79.4 | 50.1 | 2.51 | 79.4 | 50.1 | 0.032 | 79.4 | 0.079 | 63.1 | – | – | TGI (SR leukemia cell line): 63.1 µM; GI50 [10]: 0.0079 µM; CC50 [10]: 100 µM; TGI [10]: 79.4 µM |
| CO[C@H]1/C=C/O[C@@]2(C)Oc3c(C)c(O)c4c(O)c(c(/C=N/N5CCN(C)CC5)c(O)c4c3C2=O)NC(=O)/C(C)=C\C=C\[C@H](C)[C@H](O)[C@@H](C)[C@@H](O)[C@@H](C)[C@H](OC(C)=O)[C@@H]1C [Rifampin, reference compound] | – | – | – | 0.12 µg/mL and 0.15 µM | – | – | – | – | – | – | – | – | – | – | – | – | – | – | – | – | IC50 (in vitro): 111 µg/mL and 134 µM; SI (selectivity index) (VERO cells [9]): > 800; IC50 (VERO cells [11]): > 100 µg/mL |
